Measured values: US9540343B2 (Gilead Sciences, Inc., priority 2011, dated 2017)

Tests used:
[1] = in vitro; conditions: human, uninfected MT-4 cells, CC50 (nM), same protocol as Test A, CellTiter-Glo
Protocol: For the antiviral assay, 40 μL of 1× test concentration of 3-fold serially diluted compound in culture medium with 10% FBS was added to each well of a 384-well plate (10 concentrations) in quadruplicate. MT-4 cells were next mixed with HIV-IIIb at an m.o.i of 0.003 for 1 hour, after which time 35 μL of virus/cell mixture (2000 cells) was immediately added to each well containing 40 μL of diluted compound. The plates were then incubated at 37° C. for 5 days. After 5 days of incubation, 25 μl of 2× concentrated CellTiter-Glo™ Reagent (catalog #G7571, Promega Biosciences, Inc., Madison, Wis.) was added to each well containing MT-4 cells. Cell lysis was carried out by incubating at room temperature for 10 min and then chemiluminescence was read.
Test B: Cytotoxicity Assay
Compound cytotoxicity and the corresponding CC50 values was determined using the same protocol as described in the antiviral assay (Test A) except that uninfected cells were used.

[2] = tested on: HIV-IIIb; assay: Test A: Antiviral assay in MT4 cells; type: cell-based, HIV-1; conditions: Human immunodeficiency virus 1, IIIB, MT4, 120 h, read-out: % inhibition at 2 μM, percent inhibition of virus-induced cell killing, from dose response curve at 2 uM drug; MT-4 cells infected with HIV-IIIb, 5 days, CellTiter-Glo

SMILES | CC50 at 5 days [1] | inhibition at 2 µM [2]
Cc1ccccc1-c1cccnc1[C@@H](Cc1ccccc1)NC(=O)Cn1nc(C(F)(F)F)c2c1CCCC2 [Example 16, (R)—N-(2-phenyl-1-(3-o-tolylpyridin-2-yl)ethyl)-2-(3-(trifluoromethyl)-4,5,6,7-tetrahydro-1H-indazol-1-yl)acetamide] | 14000 nM | 0%
Cc1ccccc1-c1cccnc1[C@H](Cc1ccccc1)NC(=O)Cn1nc(C(F)(F)F)c2c1CCCC2 [Example 17, (S)—N-(2-phenyl-1-(3-o-tolylpyridin-2-yl)ethyl)-2-(3-(trifluoromethyl)-4,5,6,7-tetrahydro-1H-indazol-1-yl)acetamide] | 13800 nM | 70%
COc1ccc(-c2cccnc2[C@@H](Cc2ccccc2)NC(=O)Cn2nc(C(F)(F)F)c3c2CCCC3)c(C)c1 [Example 18, (R)—N-(1-(3-(4-methoxy-2-methylphenyl)pyridin-2-yl)-2-phenylethyl)-2-(3-(trifluoromethyl)-4,5,6,7-tetrahydro-1H-indazol-1-yl)acetamide] | 14600 nM | 0%
COc1ccc(-c2cccnc2[C@H](Cc2ccccc2)NC(=O)Cn2nc(C(F)(F)F)c3c2CCCC3)c(C)c1 [Example 19, (S)—N-(1-(3-(4-methoxy-2-methylphenyl)pyridin-2-yl)-2-phenylethyl)-2-(3-(trifluoromethyl)-4,5,6,7-tetrahydro-1H-indazol-1-yl)acetamide] | 14200 nM | 25%
COc1ccc(-c2cccnc2[C@H](Cc2ccccc2)NC(=O)Cc2c[nH]c3ccc(O)cc23)cc1 [Example 20, (S)-2-(5-hydroxy-1H-indol-3-yl)-N-(1-(3-(4-methoxyphenyl)pyridin-2-yl)-2-phenylethyl)acetamide] | 48300 nM | 84%
COc1ccc(-c2cccnc2[C@H](Cc2ccccc2)NC(=O)Cn2nc(C(F)(F)F)c3c2CCCC3)cc1 [Example 21, (S)—N-(1-(3-(4-methoxyphenyl)pyridin-2-yl)-2-phenylethyl)-2-(3-(trifluoromethyl)-4,5,6,7-tetrahydro-1H-indazol-1-yl)acetamide] | 15500 nM | 28%
COc1ccc(-c2cccnc2[C@@H](Cc2ccccc2)NC(=O)Cc2c[nH]c3ccc(O)cc23)cc1 [Example 22, (R)-2-(5-hydroxy-1H-indol-3-yl)-N-(1-(3-(4-methoxyphenyl)pyridin-2-yl)-2-phenylethyl)acetamide] | 45700 nM | 0%
COc1ccc(-c2cccnc2[C@@H](Cc2ccccc2)NC(=O)Cn2nc(C(F)(F)F)c3c2CCCC3)cc1 [Example 23, (R)—N-(1-(3-(4-methoxyphenyl)pyridin-2-yl)-2-phenylethyl)-2-(3-(trifluoromethyl)-4,5,6,7-tetrahydro-1H-indazol-1-yl)acetamide] | 13800 nM | 0%
Cc1ccccc1-c1cccnc1[C@H](Cc1cccc(F)c1)NC(=O)Cc1c[nH]c2ccc(O)cc12 [Example 24, (S)—N-(2-(3-fluorophenyl)-1-(3-o-tolylpyridin-2-yl)ethyl)-2-(5-hydroxy-1H-indol-3-yl)acetamide] | 24800 nM | 39%
Cc1ccccc1-c1cccnc1[C@H](Cc1cccc(F)c1)NC(=O)Cn1nc(C(F)(F)F)c2c1CCCC2 [Example 25, (S)—N-(2-(3-fluorophenyl)-1-(3-o-tolylpyridin-2-yl)ethyl)-2-(3-(trifluoromethyl)-4,5,6,7-tetrahydro-1H-indazol-1-yl)acetamide] | 11900 nM | 71%
Cc1ccccc1-c1cccnc1[C@H](Cc1cc(F)cc(F)c1)NC(=O)Cc1c[nH]c2ccc(O)cc12 [Example 26, (S)—N-(2-(3,5-difluorophenyl)-1-(3-o-tolylpyridin-2-yl)ethyl)-2-(5-hydroxy-1H-indol-3-yl)acetamide] | 24500 nM | 70%
Cc1ccccc1-c1cccnc1[C@H](Cc1cc(F)cc(F)c1)NC(=O)Cn1nc(C(F)(F)F)c2c1CCCC2 [Example 27, (S)—N-(2-(3,5-difluorophenyl)-1-(3-o-tolylpyridin-2-yl)ethyl)-2-(3-(trifluoromethyl)-4,5,6,7-tetrahydro-1H-indazol-1-yl)acetamide] | 12000 nM | 72%
COc1ccc(-c2cccnc2[C@H](Cc2cccc(F)c2)NC(=O)Cc2c[nH]c3ccc(O)cc23)cc1 [Example 28, (S)—N-(2-(3-fluorophenyl)-1-(3-(4-methoxyphenyl)pyridin-2-yl)ethyl)-2-(5-hydroxy-1H-indol-3-yl)acetamide] | 26000 nM | 93%
COc1ccc(-c2cccnc2[C@H](Cc2cccc(F)c2)NC(=O)Cn2nc(C(F)(F)F)c3c2CCCC3)cc1 [Example 29, (S)—N-(2-(3-fluorophenyl)-1-(3-(4-methoxyphenyl)pyridin-2-yl)ethyl)-2-(3-(trifluoromethyl)-4,5,6,7-tetrahydro-1H-indazol-1-yl)acetamide] | 13200 nM | 36%
COc1ccc(-c2cccnc2[C@H](Cc2cc(F)cc(F)c2)NC(=O)Cn2nc(C(F)(F)F)c3c2CCCC3)cc1 [Example 30, (S)—N-(2-(3,5-difluorophenyl)-1-(3-(4-methoxyphenyl)pyridin-2-yl)ethyl)-2-(3-(trifluoromethyl)-4,5,6,7-tetrahydro-1H-indazol-1-yl)acetamide] | 11900 nM | 76%
O=C(Cc1c[nH]c2ccccc12)N[C@@H](Cc1cc(F)cc(F)c1)c1ncccc1-c1ccc(Cl)cc1 [Example 31, (S)—N-(1-(3-(4-chlorophenyl)pyridin-2-yl)-2-(3,5-difluorophenyl)ethyl)-2-(1H-indol-3-yl)acetamide] | 8630 nM | 34%
O=C(Cc1c[nH]c2ccc(F)cc12)N[C@@H](Cc1cc(F)cc(F)c1)c1ncccc1-c1ccc(Cl)cc1 [Example 33, (S)—N-(1-(3-(4-chlorophenyl)pyridin-2-yl)-2-(3,5-difluorophenyl)ethyl)-2-(5-fluoro-1H-indol-3-yl)acetamide] | 9750 nM | 75%
COc1ccc(-c2cccnc2[C@H](Cc2cc(F)cc(F)c2)NC(=O)Cc2c[nH]c3cc(OC)c(OCc4ccccc4)cc23)cc1 [Example 34E, (S)-2-(5-(benzyloxy)-6-methoxy-1H-indol-3-yl)-N-(2-(3,5-difluorophenyl)-1-(3-(4-methoxyphenyl)pyridin-2-yl)ethyl)acetamide] | 27800 nM | 0%
COc1ccc(-c2cccnc2[C@H](Cc2cc(F)cc(F)c2)NC(=O)Cc2c[nH]c3ccc(NS(C)(=O)=O)cc23)cc1 [Example 35G, (S)—N-(2-(3,5-difluorophenyl)-1-(3-(4-methoxyphenyl)pyridin-2-yl)ethyl)-2-(5-(methylsulfonamido)-1H-indol-3-yl)acetamide] | 22400 nM | 49%
O=C(Cc1c[nH]c2ccc(=O)[nH]c12)N[C@@H](Cc1cc(F)cc(F)c1)c1ncccc1-c1ccc(Cl)cc1 [Example 37, (S)—N-(1-(3-(4-chlorophenyl)pyridin-2-yl)-2-(3,5-difluorophenyl)ethyl)-2-(5-oxo-4,5-dihydro-1H-pyrrolo[3,2-b]pyridin-3-yl)acetamide] | 34200 nM | 84%
O=C(Cc1c[nH]c2ccc(O)cc12)N[C@@H](Cc1cc(F)cc(F)c1)c1ncccc1Br [Example 38D, (S)—N-(1-(3-bromopyridin-2-yl)-2-(3,5-difluorophenyl)ethyl)-2-(5-hydroxy-1H-indol-3-yl)acetamide] | 42600 nM | 3%
N#Cc1cccc(-c2cccnc2[C@H](Cc2cc(F)cc(F)c2)NC(=O)Cc2c[nH]c3ccc(O)cc23)c1 [Example 38E, (S)—N-(1-(3-(3-cyanophenyl)pyridin-2-yl)-2-(3,5-difluorophenyl)ethyl)-2-(5-hydroxy-1H-indol-3-yl)acetamide] | 28600 nM | 86%
NC(=O)c1cc(-c2cccnc2[C@H](Cc2cc(F)cc(F)c2)NC(=O)Cc2c[nH]c3ccc(O)cc23)ccc1Cl [Example 40, (S)-2-chloro-5-(2-(2-(3,5-difluorophenyl)-1-(2-(5-hydroxy-1H-indol-3-yl)acetamido)ethyl)pyridin-3-yl)benzamide] | > 48900 nM | 99%
NC(=O)c1cc(-c2cccnc2[C@H](Cc2cc(F)cc(F)c2)NC(=O)Cc2c[nH]c3ccc(O)cc23)ccc1F [Example 41, (S)-5-(2-(2-(3,5-difluorophenyl)-1-(2-(5-hydroxy-1H-indol-3-yl)acetamido)ethyl)pyridin-3-yl)-2-fluorobenzamide] | > 53000 nM | 97%
NC(=O)c1ccc(-c2cccnc2[C@H](Cc2cc(F)cc(F)c2)NC(=O)Cc2c[nH]c3ccc(O)cc23)cc1 [Example 42, (S)-4-(2-(2-(3,5-difluorophenyl)-1-(2-(5-hydroxy-1H-indol-3-yl)acetamido)ethyl)pyridin-3-yl)benzamide] | > 53000 nM | 96%
NS(=O)(=O)c1ccc(-c2cccnc2[C@H](Cc2cc(F)cc(F)c2)NC(=O)Cc2c[nH]c3ccc(O)cc23)cc1 [Example 43, (S)—N-(2-(3,5-difluorophenyl)-1-(3-(4-sulfamoylphenyl)pyridin-2-yl)ethyl)-2-(5-hydroxy-1H-indol-3-yl)acetamide] | > 53000 nM | 28%
